In patent US10975035B2, “Bicyclic compounds” (Recurium IP Holdings, LLC, priority 2014, dated 2021):
Where a name gives a salt, the structure may show the parent alone.

System: male ICR mice
Experiment: Formalin paw test
Type: in vivo, mouse
Conditions: for Early Phase: early/acute phase (0-10 minutes) after formalin; for Late Phase: late/tonic phase (10-35 minutes) after formalin
Description: One test compound or the vehicle was administered to each mouse in each test group (8 mice per group). Non-fasted male ICR mice weighing 23±3 g were used. Test compounds were administered at a concentration of 3 mg/kg, 10 mg/kg, 15 mg/kg, 30 mg/kg, 60 mg/kg, 100 mg/kg, 200 mg/kg or 300 mg/kg; morphine was administered at a concentration of 5 mg/kg; and acetaminophen was administered at a concentration of 200 mg/kg. The control group received the vehicle (5% DMSO/40% PEG400/20% HPbCD/Saline). After 30 or 60 minutes, a 2% formalin solution (0.02 mL) was injected into one hind paw (sub-plantar) of each mouse. Responses were measured every 5 minutes after the formalin injection for 35 minutes.
The results in Table A are for oral administration; the results in Table B are for intraperitoneal administration. In Tables A and B, ‘A’ designates <70 licks/sec, ‘B’ designates ≥70 licks/sec and <165 licks/sec, and ‘C’ designates ≥165 licks/sec.

[1] = intraperitoneal administration, 30 mg/kg

| SMILES | Early Phase (oral administration, 200 mg/kg) | Late Phase (oral administration, 200 mg/kg) | Early Phase [1] | Late Phase [1] |
| --- | --- | --- | --- | --- |
| CC(=O)NCC12CC(C(C)(C)C)(C1)C2 [Compound 1, N-((3-(tert-butyl)bicyclo[1.1.1]pentan-1-yl)methyl)acetamide] | A (‘A’ designates <70 licks/sec) | A (‘A’ designates <70 licks/sec) |  |  |
| CC(C)(C)C12CC(CN)(C1)C2 [Compound 1c, (3-(tert-butyl)bicyclo[1.1.1]pentan-1-yl)methanamine] |  |  | B (‘B’ designates ≥70 licks/sec and <165 licks/sec) | B (‘B’ designates ≥70 licks/sec and <165 licks/sec) |
| CC(=O)NCC12CC(C(F)(F)F)(C1)C2 [Compound 2] | B (‘B’ designates ≥70 licks/sec and <165 licks/sec) | B (‘B’ designates ≥70 licks/sec and <165 licks/sec) |  |  |
| CC(=O)NC12CC(C(F)(F)F)(C1)C2 [Compound 4] | A (‘A’ designates <70 licks/sec) | C (‘C’ designates ≥165 licks/sec) |  |  |
| CC(=O)NC12CC(C)(C1)C2 [Compound 6] | B (‘B’ designates ≥70 licks/sec and <165 licks/sec) | B (‘B’ designates ≥70 licks/sec and <165 licks/sec) |  |  |
| CC(=O)NC12CC(C(C)C)(C1)C2 [Compound 8] | A (‘A’ designates <70 licks/sec) | A (‘A’ designates <70 licks/sec) |  |  |
| O=C(NC12CC(C1)C2)C(F)(F)F [Compound 9] | B (‘B’ designates ≥70 licks/sec and <165 licks/sec) | C (‘C’ designates ≥165 licks/sec) |  |  |
| CC(C)(C)C(=O)NC12CC(C(C)(C)C)(C1)C2 [Compound 11] | A (‘A’ designates <70 licks/sec) | A (‘A’ designates <70 licks/sec) |  |  |
| CC(C)(C)C(=O)NC12CC(C1)C2 [Compound 12] | B (‘B’ designates ≥70 licks/sec and <165 licks/sec) | C (‘C’ designates ≥165 licks/sec) |  |  |
| CC(=O)N(C)C12CC(C(C)(C)C)(C1)C2 [Compound 14] | A (‘A’ designates <70 licks/sec) | A (‘A’ designates <70 licks/sec) |  |  |
| CC(=O)NC12CC(C(C)(C)O)(C1)C2 [Compound 18] |  |  | B (‘B’ designates ≥70 licks/sec and <165 licks/sec) | C (‘C’ designates ≥165 licks/sec) |
| NCCC12CC(C(F)(F)F)(C1)C2 [Compound 21, 2-(3-(trifluoromethyl)bicyclo[1.1.1]pentan-1-yl)ethanamine, hydrochloride] |  |  | B (‘B’ designates ≥70 licks/sec and <165 licks/sec) | B (‘B’ designates ≥70 licks/sec and <165 licks/sec) |
